Where two headings read alike, the source gives them in different places.
Key:
[1] = Pharmacokinetic assay in rats; format: in vivo, Sprague-Dawley rats; details: rat; for AUC(0-t) / Cmax / Tmax / half-life / AUC(0-inf) / MRT inf / bioavailability: male, Sprague-Dawley, plasma; for AUC(0-inf): read-out: AUCINF_pred; for MRT inf: read-out: MRTINF_pred; for bioavailability: PO 10 mg/kg vs IV 0.5 mg/kg
Experimental: Six male Sprague-Dawley rats (7-8 weeks old, and weighing about 210 g) were divided into 2 groups, 3 rats in each group. A single dose of compounds (10 mg/kg orally) was administered intravenously or orally to compare their pharmacokinetics.
The rats were fed with standard feed and water. Fasting was started 16 hours before the assay. The drug was dissolved in PEG400 and dimethyl sulfoxide. Blood was collected from the orbit. The time points for blood collection were 0.083 hours, 0.25 hours, 0.5 hours, 1 hour, 2 hours, 4 hours, 6 hours, 8 hours, 12 hours and 24 hours after administration.
The rats were briefly anesthetized after inhaling diethyl ether, and 300 μL of blood sample was collected from the orbit into a test tube containing 30 μL of 1% heparin salt solution. Before use, the test tube was oven dried overnight at 60° C. After the blood sample was collected at the last time point, the rats were anesthetized with diethyl ether and then sacrificed.
Immediately after the blood sample was collected, the test tube was gently inverted at least 5 times to ensure sufficient mixing, and then placed on ice. The blood sample was centrifuged at 5000 rpm at 4° C. for 5 minutes to separate the plasma from the red blood cells. 100 μL of plasma was aspirated into a clean plastic centrifuge tube with a pipette, and the name of the compound and time point were marked. The plasma was stored at −80° C. before analysis. The concentration of the compound of the present disclosure in plasma was determined by LC-MS/MS. The pharmacokinetic parameters were calculated based on the blood drug concentration of each animal at different time points.

[2] = molecular target: WT EGFR (Homo sapiens (Human), UniProt P00533); experiment: Kinase inhibition assay (HTRF Kinase TK), WT EGFR; format: biochemical
WT EGFR, sequence (P00533 25-1210): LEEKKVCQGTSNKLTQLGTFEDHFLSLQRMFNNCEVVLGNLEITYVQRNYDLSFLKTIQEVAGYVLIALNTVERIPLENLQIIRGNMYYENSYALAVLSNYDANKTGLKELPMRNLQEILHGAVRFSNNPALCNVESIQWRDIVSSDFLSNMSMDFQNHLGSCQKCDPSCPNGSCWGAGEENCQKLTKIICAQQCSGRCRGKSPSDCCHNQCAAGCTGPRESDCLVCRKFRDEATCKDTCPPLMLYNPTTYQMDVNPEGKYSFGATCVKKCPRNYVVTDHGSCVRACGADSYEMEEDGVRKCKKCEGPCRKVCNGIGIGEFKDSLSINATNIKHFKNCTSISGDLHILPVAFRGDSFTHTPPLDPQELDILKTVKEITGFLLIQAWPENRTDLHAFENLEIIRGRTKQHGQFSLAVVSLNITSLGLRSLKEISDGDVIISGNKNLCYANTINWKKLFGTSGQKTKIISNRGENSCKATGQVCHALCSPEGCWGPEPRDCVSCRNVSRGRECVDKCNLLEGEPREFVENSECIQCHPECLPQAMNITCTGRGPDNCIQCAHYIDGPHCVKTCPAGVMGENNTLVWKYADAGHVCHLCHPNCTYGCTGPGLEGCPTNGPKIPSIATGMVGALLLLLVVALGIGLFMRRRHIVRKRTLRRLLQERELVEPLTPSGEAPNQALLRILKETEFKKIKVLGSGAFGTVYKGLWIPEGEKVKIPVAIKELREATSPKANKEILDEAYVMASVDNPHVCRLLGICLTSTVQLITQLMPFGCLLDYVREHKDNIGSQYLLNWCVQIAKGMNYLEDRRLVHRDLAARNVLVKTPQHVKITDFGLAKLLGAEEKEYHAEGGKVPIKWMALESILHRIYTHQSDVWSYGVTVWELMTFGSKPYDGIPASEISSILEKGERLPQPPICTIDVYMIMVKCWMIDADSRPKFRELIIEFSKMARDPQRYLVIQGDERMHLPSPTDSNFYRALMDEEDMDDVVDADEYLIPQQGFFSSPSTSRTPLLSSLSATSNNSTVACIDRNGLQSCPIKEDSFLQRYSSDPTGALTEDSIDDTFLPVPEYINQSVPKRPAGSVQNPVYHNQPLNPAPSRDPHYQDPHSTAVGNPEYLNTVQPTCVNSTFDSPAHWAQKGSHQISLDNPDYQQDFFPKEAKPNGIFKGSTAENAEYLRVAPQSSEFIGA
Text: (§1) WT EGFR (Carna, Cat. No 08-115), EGFR[L858R] (Carna, Cat. No 08-502), EGFR[L858R/T790M] (Carna, Cat. No 08-510), ATP (Sigma, Cat. No A7699-1G), DMSO (Sigma, Cat. No D2650), 96-well plate (Corning, Cat. No 3365), 384-well plate (Greiner, Cat. No 784076). HTRF Kinase TK Kit (Cisbio. Cat. No 62TK0PEJ), erlotinib (Selleckchem, Cat. No S7787), EGFR[d746-750] (Life Technologies, Cat. No PV6178), 5× kinase buffer A (Life Technologies, Cat. No PV3186), kinase tracer 199 (Life Technologies, Cat. No PV5830), LanthaScreen® Eu-anti-GST antibody (Life Technologies, Cat. No PV5594).
(§2) Formulation of compound: The test compound was dissolved in DMSO to prepare a 20 mM stock solution. The stock solution was then serially diluted 3-fold in DMSO to obtain ten concentrations. After the compound was added, a 10-fold dilution was performed with buffer.
(§3) WT EGFR and EGFR[L858R/T790M] kinase detection: In 5× kinase buffer A, WT EGFR or EGFR[L858R/T790M] kinase was mixed with different concentrations of compounds prepared by pre-dilution for 10 minutes. Each concentration was tested in duplicate. The corresponding substrate and ATP were added, and reaction was performed at room temperature for 20 minutes (negative and positive controls were provided: the negative control was a blank control, and the positive control was erlotinib). After completion of the reaction, detection reagents (reagents in the HTRF Kinase TK kit) were added. After incubating for 30 minutes at room temperature, enzyme activity in the presence of various concentrations of the compounds of the present disclosure was determined by Evnvision microplate reader, and inhibitory activity of different concentrations of the compounds on enzyme activity was calculated. The inhibitory activity of different concentrations of the compounds on enzyme activity was then fitted by Graphpad 5.0 software according to the four-parameter equation, and the IC50 value was calculated.

[3] = molecular target: EGFR[L858R/T790M] (Homo sapiens (Human), UniProt P00533, L858R/T790M); experiment: Kinase inhibition assay (HTRF Kinase TK), EGFR[L858R/T790M]; format: biochemical
EGFR[L858R/T790M], sequence (P00533 25-1210 T790M/L858R): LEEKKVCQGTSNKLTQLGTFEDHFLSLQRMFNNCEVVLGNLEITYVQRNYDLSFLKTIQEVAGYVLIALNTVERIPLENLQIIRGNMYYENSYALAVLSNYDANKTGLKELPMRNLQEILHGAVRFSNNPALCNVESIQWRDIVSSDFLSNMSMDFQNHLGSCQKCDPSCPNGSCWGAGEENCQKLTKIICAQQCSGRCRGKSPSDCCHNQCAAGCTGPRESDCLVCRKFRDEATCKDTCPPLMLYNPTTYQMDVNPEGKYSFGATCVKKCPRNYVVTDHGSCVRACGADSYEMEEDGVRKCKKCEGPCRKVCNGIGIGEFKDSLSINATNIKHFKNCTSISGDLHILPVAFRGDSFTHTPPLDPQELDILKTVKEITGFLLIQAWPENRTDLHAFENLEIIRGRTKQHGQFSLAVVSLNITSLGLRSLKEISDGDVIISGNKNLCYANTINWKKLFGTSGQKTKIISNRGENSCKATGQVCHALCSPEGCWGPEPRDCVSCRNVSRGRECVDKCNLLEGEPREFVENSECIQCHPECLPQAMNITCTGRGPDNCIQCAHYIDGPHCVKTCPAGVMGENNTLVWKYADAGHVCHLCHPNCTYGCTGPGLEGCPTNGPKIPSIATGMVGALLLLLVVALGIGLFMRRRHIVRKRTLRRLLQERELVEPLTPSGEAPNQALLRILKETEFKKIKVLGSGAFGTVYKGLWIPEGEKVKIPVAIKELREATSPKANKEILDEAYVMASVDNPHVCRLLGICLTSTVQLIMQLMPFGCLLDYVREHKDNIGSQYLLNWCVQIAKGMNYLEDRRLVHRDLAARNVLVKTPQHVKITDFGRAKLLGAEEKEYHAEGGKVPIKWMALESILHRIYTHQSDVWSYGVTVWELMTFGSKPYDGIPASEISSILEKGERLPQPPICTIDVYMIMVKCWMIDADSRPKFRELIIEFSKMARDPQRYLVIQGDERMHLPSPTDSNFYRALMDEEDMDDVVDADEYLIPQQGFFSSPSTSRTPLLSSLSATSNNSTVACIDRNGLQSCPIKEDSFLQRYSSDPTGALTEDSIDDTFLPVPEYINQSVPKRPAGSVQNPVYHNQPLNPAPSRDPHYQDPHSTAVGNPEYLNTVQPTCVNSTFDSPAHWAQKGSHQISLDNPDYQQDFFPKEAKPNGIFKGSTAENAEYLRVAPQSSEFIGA
Text: as §1, §2, §3

[4] = test system: skin cancer cell A431; experiment: Cytotoxicity assay (MTS cell viability), A431; format: cell-based; details: Homo sapiens, A-431, 72 hours
Experimental: (§4) In vitro anti-proliferation activity of the compound of the present disclosure on three tumor cell lines cultured in vitro was detected by the MTS method.
(§5) Cell lines: skin cancer cell A431 (purchased from the American Type Culture Collection (ATCC)); lung cancer cell NCI-H1975 (purchased from the American Type Culture Collection (ATCC)) and HCC827 (purchased from the American Type Culture Collection (ATCC)); all were cultured with RPM11640 medium containing 10% fetal bovine serum, 100 U/ml penicillin, and […] streptomycin.
(§6) Reagents and materials: RPMI-1640 (GIBCO, Cat. No A10491-01); fetal bovine serum (GIBCO, Cat. No 10099141): 0.25% trypsin-EDTA (GIBCO, Cat. No 25200); penicillin-streptomycin; liquid (GIBCO, Cat. No 15140-122); DMSO (Sigma, Cat. No D2650); MTS Assay Kit (Promega, Cat. No G3581), 96-well plate (Corning, Cat. No 3365).
as §2, with “solution, which was stored at −20° C.” for “solution.”, “4-fold” for “10-fold”, “cell culture medium.” for “buffer.”
(§7) MTS cell viability assay: cells in logarithmic growth phase was digested with 0.25% trypsin-EDTA, and 150 μl of the cells was inoculated in a 96-well plate at an optimized density. After 24 hours, the compound diluted 4 fold in the medium was added, 50 μl/well (generally ten concentrations were selected: 100, 33.3, 11.1, 3.70, 1.23, 0.412, 0.137, 0.0457, 0.0152, 0.00508 μM). The same volume of 0.5% DMSO was added in wells as a control. After the cells were cultured for another 72 hours, the cell viability was detected by MTS.
(§8) Specific procedure: The cells were adhered. The medium was discarded. A mixture containing 20 μL MTS and 100 μl medium was added to each well. After incubating for 1-4 hours in an incubator, OD490 was detected, with the OD650 value as a reference. A dose-effect curve was made using GraphPad Prism software and IC50 was calculated.

[5] = test system: lung cancer cell HCC827 (Del19); experiment: Cytotoxicity assay (MTS cell viability), HCC827; format: cell-based; details: Homo sapiens, 72 hours
Experimental: as §4, §5, §6
as §2, with “solution, which was stored at −20° C.” for “solution.”, “4-fold” for “10-fold”, “cell culture medium.” for “buffer.”
as §7, §8

[6] = test system: lung cancer cell NCI-H1975 (L858R/T790M); experiment: Cytotoxicity assay (MTS cell viability), NCI-H1975; format: cell-based; details: Homo sapiens, 72 hours
Experimental: as §4, §5, §6
as §2, with “solution, which was stored at −20° C.” for “solution.”, “4-fold” for “10-fold”, “cell culture medium.” for “buffer.”
as §7, §8

Row | Compound | Cl_pred ([1]; IV 0.5 mg/kg) [mL/min/kg] | Vz_pred ([1]; IV 0.5 mg/kg) [L/kg] | Cl_pred ([1]; PO 10 mg/kg) [mL/min/kg] | Vz_pred ([1]; PO 10 mg/kg) [L/kg] | IC50 [2] [nM] | IC50 [3] [nM] | AUC(0-t) ([1]; IV 0.5 mg/kg) [ng·h/mL] | Cmax ([1]; IV 0.5 mg/kg) [ng/mL] | Tmax ([1]; IV 0.5 mg/kg) [h] | half-life ([1]; IV 0.5 mg/kg) [h] | AUC(0-inf) ([1]; IV 0.5 mg/kg) [ng·h/mL] | MRT inf ([1]; IV 0.5 mg/kg) [h] | AUC(0-t) ([1]; PO 10 mg/kg) [ng·h/mL] | Cmax ([1]; PO 10 mg/kg) [ng/mL] | Tmax ([1]; PO 10 mg/kg) [h] | half-life ([1]; PO 10 mg/kg) [h] | bioavailability [1] [%] | IC50 [4] [nM] | IC50 [5] [nM] | IC50 [6] [nM] | also measured
1 | C=CC(=O)Nc1cc(Nc2nccc(-n3cc(CN(C)C)c(-c4ccccc4)n3)n2)c(OC)cc1N1CCOCC1 [YH25448, reference compound] | 17.5 | 5.73 | 94.2 | 61.56 |  |  |  |  |  |  |  |  |  |  |  |  |  |  |  |  | 
2 | C=CC(=O)Nc1cc(Nc2nccc(-n3cc(CN(C)C)c(-c4ccccc4)n3)n2)c(OC)nc1N1CCOCC1 [Compound T-1, N-(5-((4-(4-((dimethylamino)methyl)-3-phenyl-1H-pyrazol-1-yl)pyrimidin-2-yl)amino)-6-methoxy-2-morpholinopyridin-3-yl)acrylamide] | 24.5 | 5.94 | 97.5 | 73.39 | 1.29 | 0.4 | 328 | 246 | 0.08 | 2.8 | 341 | 2.32 | 1430 | 91.1 | 5.33 | 8.69 | 21.8 | 260 | 3.64 | 2.43 | AUC(0-inf) ([1]; PO 10 mg/kg): 1790 ng·h/mL; MRT inf ([1]; PO 10 mg/kg): 9.11 h
3 | C=CC(=O)Nc1cc(Nc2nccc(-n3cc(CN(C)C)c(-c4ccccc4)n3)n2)c(OC(C)C)nc1N1CCOCC1 [Compound T-4, N-(5-((4-(4-((dimethylamino)methyl)-3-phenyl-1H-pyrazol-1-yl)-pyrimidin-2-yl)amino)-6-isopropoxy-2-morpholinopyridin-3-yl)acrylamide] |  |  |  |  | 1.98 | 0.81 |  |  |  |  |  |  |  |  |  |  |  | 130 | 5.06 | 13.2 | 

Continued by falling IC50 [2], values first:

Row | Cl_pred ([1]; IV 0.5 mg/kg) [mL/min/kg] | Vz_pred ([1]; IV 0.5 mg/kg) [L/kg] | Cl_pred ([1]; PO 10 mg/kg) [mL/min/kg] | Vz_pred ([1]; PO 10 mg/kg) [L/kg] | IC50 [2] [nM] | IC50 [3] [nM] | AUC(0-t) ([1]; IV 0.5 mg/kg) [ng·h/mL] | Cmax ([1]; IV 0.5 mg/kg) [ng/mL] | Tmax ([1]; IV 0.5 mg/kg) [h] | half-life ([1]; IV 0.5 mg/kg) [h] | AUC(0-inf) ([1]; IV 0.5 mg/kg) [ng·h/mL] | MRT inf ([1]; IV 0.5 mg/kg) [h] | AUC(0-t) ([1]; PO 10 mg/kg) [ng·h/mL] | Cmax ([1]; PO 10 mg/kg) [ng/mL] | Tmax ([1]; PO 10 mg/kg) [h] | half-life ([1]; PO 10 mg/kg) [h] | bioavailability [1] [%] | Compound | IC50 [4] [nM] | IC50 [5] [nM] | IC50 [6] [nM] | also measured
4 |  |  |  |  | 6.29 | 0.6 |  |  |  |  |  |  |  |  |  |  |  | C=CC(=O)Nc1cc(Nc2ncc(C)c(-n3cc(CN(C)C)c(-c4ccccc4)n3)n2)c(OC)nc1N1CCOCC1 [Compound T-3, N-(5-((4-(4-((dimethylamino)methyl)-3-phenyl-H-pyrazol-1-yl)-5-methylpyrimidin-2-yl)amino)-6-methoxy-2-morpholinopyridin-3-yl)acrylamide] | 342 | 12.1 | 21.9 | 
5 | 29.2 | 5.49 | 200.8 | 111.2 | 3.33 | 0.44 | 284 | 268 | 0.08 | 2.17 | 289 | 1.95 | 753 | 69.3 | 2.33 | 6.4 | 25.1 | C=CC(=O)Nc1cc(Nc2ncc(F)c(-n3cc(CN(C)C)c(-c4ccccc4)n3)n2)c(OC)nc1N1CCOCC1 [Compound T-2, N-(5-((4-(4-((dimethylamino)methyl)-3-phenyl-1H-pyrazol-1-yl)-5-fluoropyrimidin-2-yl)amino)-6-methoxy-2-morpholinopyridin-3-yl) acrylamide] | 1410 | 8.25 | 9.51 | AUC(0-inf) ([1]; PO 10 mg/kg): 840 ng·h/mL; MRT inf ([1]; PO 10 mg/kg): 7.67 h
6 |  |  |  |  | 0.55 | 1.15 |  |  |  |  |  |  |  |  |  |  |  | C=CC(=O)Nc1cc(Nc2nccc(-c3cc(CN(C)C)n(-c4ccccc4)n3)n2)c(OC)cc1N1CCOCC1 [Compound T-7, N-(5-((4-(5-((dimethylamino)methyl)-1-phenyl-1H-pyrazol-3-yl)pyrimidin-2-yl)amino)-4-methoxy-2-morpholinophenyl)acrylamide] | 226 | 4.44 | 23.5 | 

From patent publication US12312329B2, “Aminopyrimidine compound used for inhibiting activity of protein kinase” (Shenzhen TargetRx, Inc., priority 2018, dated 2025)
